Results reported in patent US20250066370A1, “BICYCLIC TRIAZINE DERIVATIVES FOR THE TREATMENT OF CANCER” (DEUTSCHES KREBSFORSCHUNGSZENTRUM, priority 2022, published 2025).
One block for each compound: values may come before it.

Experiments:
CYCLIN K = CYCLIN K nuclear protein level: immunofluorescence/high content analysis in CAL-120 cells; assay type: cell-based, human; conditions: 24 h, nuclear CCNK staining intensity, median, read-out: CYCLIN K degradation IF, DC50 - [mol/l] (median)
Experimental: CAL-120 human breast cancer cells (DSMZ ACC 459) are seeded in 1536-well microtiter plates (800 cells per well) containing 50 nanoL of compounds in Dose-Response. Control wells received DMSO or Example 4. Plates are then incubated for 24 h at 37° C. in an humidified incubator and fixed with 4% PFA for 10 min. Then immunofluorescence (IF) against CYCLIN K (ThermoFisher Scientific CCNK Antibody #PA5-85020, rabbit, 1:200 dilution) is performed using standard IF protocols. Cells are then stained with Hoechst 33342 (Life Technologies, H-1399, 0.1 microg/ml) and imaged on an automated confocal microscopy system (e.g. Perkin Elmer Opera Phenix). Nuclear and cytoplasmic intensity as well as the nuclear/cytoplasmic intensity ratio is determined by automated image analysis using custom generated scripts (MetaXpress). Data is then transferred to Genedata Screener software, normalized to DMSO and control and DC50 values (degrading concentration to achieve 50% reduction of nuclear CCNK staining intensity relative to controls) are reported.

HCC1806 = assay: Proliferation assay: cell line panel, HCC1806; assay type: cell-based; conditions: Homo sapiens, 96 h, breast cancer, triple-negative, 4 days, read-out: Result Category, IC50 (mean)
Text: (§1) Human tumour cells were originally obtained from the American Type Culture Collection (ATCC), from Cell Line Services GmbH (CLS), from the Deutsche Sammlung von Mikroorganismen und Zellkulturen (DSMZ, German Collection of Microorganisms and Cell Cultures), from the Japanese Cancer Research Resources Bank (JCRB), from Public Health England, from the European Collection of Authenticated Cell Cultures (ECACC), from Asterand Biosciences, or from the National Cancer Institute (NCI). Cultivated tumour cells were plated at the density as indicated in Table 6 in 96-well multitier plates in 200 microL of their respective growth medium supplemented 10% fetal calf serum. […] Cell proliferation was determined by staining the cells with crystal violet: the cells were fixed by adding 20 microL/measuring point of an 11% glutaric aldehyde solution for 15 minutes at room temperature. […] The extinction was determined by photometry at a wavelength of 595 nm. The change of cell number, in percent, was calculated by normalization of the measured values to the extinction values of the zero-point plate (=0%) and the extinction of the untreated (0 μM) cells (=100%). […]

HCC1954 = assay: Proliferation assay: cell line panel, HCC1954; assay type: cell-based; conditions: Homo sapiens, 96 h, breast cancer, HER2 positive, 4 days, read-out: Result Category, IC50 (mean)
Text: as §1

HCC1419 = assay: Proliferation assay: cell line panel, HCC1419; assay type: cell-based; conditions: Homo sapiens, 96 h, breast cancer, HER2 positive, 4 days, read-out: Result Category, IC50 (mean)
Text: as §1

HCC1143 = assay: Proliferation assay: cell line panel, HCC1143; assay type: cell-based; conditions: Homo sapiens, 96 h, breast cancer, triple-negative, 4 days, read-out: Result Category, IC50 (mean)
Text: as §1

MDA-MB-231 = assay: Proliferation assay: cell line panel, MDA-MB-231; assay type: cell-based; conditions: Homo sapiens, 96 h, breast cancer, triple-negative, 4 days, read-out: Result Category, IC50 (mean)
Text: as §1

COV318 = assay: Proliferation assay: cell line panel, COV318; assay type: cell-based; conditions: Homo sapiens, 96 h, ovarian cancer, 4 days, read-out: Result Category, IC50 (mean)
Text: as §1

AU565 = assay: Proliferation assay: cell line panel, AU565; assay type: cell-based; conditions: Homo sapiens, 96 h, breast cancer, HER2 positive, 4 days, read-out: Result Category, IC50 (mean)
Text: as §1

CAL-120 = assay: Proliferation assay: cell line panel, CAL-120; assay type: cell-based; conditions: Homo sapiens, 96 h, breast cancer, triple-negative, 4 days, read-out: Result Category, IC50 (mean)
Text: as §1

HUH-7 = assay: Proliferation assay: cell line panel, HUH-7; assay type: cell-based; conditions: Homo sapiens, 96 h, liver cancer, 4 days, read-out: Result Category, IC50 (mean)
Text: as §1

HT-144 = assay: Proliferation assay: cell line panel, HT-144; assay type: cell-based; conditions: Homo sapiens, 96 h, melanoma, 4 days, read-out: Result Category, IC50 (mean)
Text: as §1

NCI-H1299 = assay: Proliferation assay: cell line panel, NCI-H1299; assay type: cell-based; conditions: Homo sapiens, 96 h, lung cancer, non-small cell, 4 days, read-out: Result Category, IC50 (mean)
Text: as §1

JHH-7 = assay: Proliferation assay: cell line panel, JHH-7; assay type: cell-based; conditions: Homo sapiens, JHH7, 96 h, liver cancer, 4 days, read-out: Result Category, IC50 (mean)
Text: as §1

MDA-MB-468 = assay: Proliferation assay: cell line panel, MDA-MB-468; assay type: cell-based; conditions: Homo sapiens, 96 h, breast cancer, triple-negative, 4 days, read-out: Result Category, IC50 (mean)
Text: as §1

EFM192A = assay: Proliferation assay: cell line panel, EFM192A; assay type: cell-based; conditions: Homo sapiens, EFM-192A, 96 h, breast cancer, HER2 positive, 4 days, read-out: Result Category, IC50 (mean)
Text: as §1

BT474 = assay: Proliferation assay: cell line panel, BT474; assay type: cell-based; conditions: Homo sapiens, BT-474, 96 h, breast cancer, HER2 positive, 4 days, read-out: Result Category, IC50 (mean)
Text: as §1

SMILES: FC(F)(F)Oc1ccc(-c2nnc(CNc3nc(N4CCOCC4)nc4c(C(F)(F)F)cnn34)[nH]2)cc1 [Example 5, 2-(morpholin-4-yl)-N-({5-[4-(trifluoromethoxy)phenyl]-4H-1,2,4-triazol-3-yl}methyl)-8-(trifluoromethyl)pyrazolo[1,5-a][1,3,5]triazin-4-amine]
DC50 (CYCLIN K): > 1000 nM

SMILES: FC(F)(F)c1ccc(-c2nnc(CNc3nc(N4CCOCC4)nc4c(C(F)(F)F)cnn34)[nH]2)cc1 [Example 6, 2-(morpholin-4-yl)-8-(trifluoromethyl)-N-({5-[4-(trifluoromethyl)phenyl]-4H-1,2,4-triazol-3-yl}methyl)pyrazolo[1,5-a][1,3,5]triazin-4-amine]
DC50 (CYCLIN K): > 1000 nM

SMILES: FC(F)(F)c1ccc(-c2cnc(CNc3nc(N4CCOCC4)nn4c(C(F)(F)F)cnc34)[nH]2)cc1 [Example 7, 2-(morpholin-4-yl)-7-(trifluoromethyl)-N-({5-[4-(trifluoromethyl)phenyl]-1H-imidazol-2-yl}methyl)imidazo[2,1-f][1,2,4]triazin-4-amine]
IC50 (HCC1806): ≥ 100 nM
IC50 (HCC1954): 30 to 100 nM
IC50 (HCC1419): 30 to 100 nM
IC50 (HCC1143): ≥ 100 nM
IC50 (MDA-MB-231): 30 to 100 nM
IC50 (COV318): ≥ 100 nM
IC50 (AU565): 30 to 100 nM
IC50 (CAL-120): ≥ 100 nM
IC50 (HUH-7): 30 to 100 nM
IC50 (HT-144): 30 to 100 nM
IC50 (NCI-H1299): ≥ 100 nM
IC50 (JHH-7): ≥ 100 nM
IC50 (MDA-MB-468): 30 to 100 nM
IC50 (EFM192A): ≥ 100 nM
IC50 (BT474): 30 to 100 nM

SMILES: FC(F)(F)Oc1ccc(-c2cnc(CNc3nc(N4CCOCC4)nn4c(C(F)(F)F)cnc34)[nH]2)cc1 [Example 8, 2-(morpholin-4-yl)-N-({5-[4-(trifluoromethoxy)phenyl]-1H-imidazol-2-yl}methyl)-7-(trifluoromethyl)imidazo[2,1-f][1,2,4]triazin-4-amine]
IC50 (HCC1806): 30 to 100 nM
IC50 (HCC1954): 30 to 100 nM
IC50 (HCC1419): 30 to 100 nM
IC50 (HCC1143): ≥ 100 nM
IC50 (MDA-MB-231): ≥ 100 nM
IC50 (COV318): ≥ 100 nM
IC50 (AU565): ≤ 30 nM
IC50 (CAL-120): 30 to 100 nM
IC50 (HUH-7): 30 to 100 nM
IC50 (HT-144): 30 to 100 nM
IC50 (NCI-H1299): ≥ 100 nM
IC50 (JHH-7): 30 to 100 nM
IC50 (MDA-MB-468): 30 to 100 nM
DC50 (CYCLIN K): > 1000 nM
IC50 (EFM192A): ≥ 100 nM
IC50 (BT474): 30 to 100 nM

SMILES: FC(F)(F)Oc1ccc(-c2cnc(CNc3nc(N4CCOCC4)nc4c(C(F)(F)F)cnn34)[nH]2)cc1 [Example 10, 2-(morpholin-4-yl)-N-({5-[4-(trifluoromethoxy)phenyl]-1H-imidazol-2-yl}methyl)-8-(trifluoromethyl)pyrazolo[1,5-a][1,3,5]triazin-4-amine]
DC50 (CYCLIN K): 228 nM

SMILES: FC(F)(F)c1ccc(-c2nnc(CNc3nc(N4CCOCC4)nn4c(C(F)(F)F)cnc34)[nH]2)cc1 [Example 11, 2-(morpholin-4-yl)-7-(trifluoromethyl)-N-({5-[4-(trifluoromethyl)phenyl]-4H-1,2,4-triazol-3-yl}methyl)imidazo[2,1-f][1,2,4]triazin-4-amine]
DC50 (CYCLIN K): > 1000 nM

SMILES: COc1ccc(-c2nnc(CNc3nc(N4CCOCC4)nc4c(C(F)(F)F)cnn34)[nH]2)cn1 [Example 15, N-{[5-(6-methoxypyridin-3-yl)-4H-1,2,4-triazol-3-yl]methyl}-2-(morpholin-4-yl)-8-(trifluoromethyl)pyrazolo[1,5-a][1,3,5]triazin-4-amine]
DC50 (CYCLIN K): > 1000 nM

SMILES: COc1ccc(-c2nnc(CNc3nc(N4CCOCC4)nn4c(C(F)(F)F)cnc34)[nH]2)cn1 [Example 18, N-{[5-(6-methoxypyridin-3-yl)-4H-1,2,4-triazol-3-yl]methyl}-2-(morpholin-4-yl)-7-(trifluoromethyl)imidazo[2,1-f][1,2,4]triazin-4-amine]
DC50 (CYCLIN K): > 1000 nM

The next lines start with the values.

DC50 (CYCLIN K): > 1000 nM
SMILES: FC(F)(F)c1ccc(-c2nnc(CNc3nc(N4CCOCC4)nn4c(C(F)(F)F)cnc34)[nH]2)cn1 [Example 20, 2-(morpholin-4-yl)-7-(trifluoromethyl)-N-({5-[6-(trifluoromethyl)pyridin-3-yl]-4H-1,2,4-triazol-3-yl}methyl)imidazo[2,1-f][1,2,4]triazin-4-amine]

DC50 (CYCLIN K): 124 nM
SMILES: Cc1ccc(-c2nnc(CNc3nc(N4CCOCC4)nn4c(C(F)(F)F)cnc34)[nH]2)cn1 [Example 23, N-{[5-(6-methylpyridin-3-yl)-4H-1,2,4-triazol-3-yl]methyl}-2-(morpholin-4-yl)-7-(trifluoromethyl)imidazo[2,1-f][1,2,4]triazin-4-amine]

DC50 (CYCLIN K): > 1000 nM
SMILES: FC(F)(F)c1ccc(-c2cnc(CNc3nc(N4CCOCC4)nc4c(C(F)(F)F)cnn34)[nH]2)cn1 [Example 24, 2-(morpholin-4-yl)-8-(trifluoromethyl)-N-({5-[6-(trifluoromethyl)pyridin-3-yl]-1H-imidazol-2-yl}methyl)pyrazolo[1,5-a][1,3,5]triazin-4-amine]
